# Data: patent US12622974B2, “Siderophore-dihydrofolate reductase inhibitor conjugate and application thereof” (priority 2020, dated 2026)
# *1 amine or outer side, *2 acyl side, *3 side chain or, on linkers, in order; H or OH if unused. Where a SMILES comes first, the peptide text is derived from it. [ ]: non-standard residue; d: D form. The star is where a group is joined. DAMPA = CN(Cc1cnc2nc(N)nc(N)c2n1)c1ccc(C(=O)*)cc1; Orn(N5-OH,N5-Ac) = CC(=O)N(O)CCC[C@H](N)C(=O)O; d(γGlu) = O=C(O)[C@@H](CCC(=O)[*:2])N[*:1]; Ethylenediamine = C(CN[*:2])N[*:1]
# Tests used:
# [1] = test system: clinical Streptococcus pneumoniae; test: MIC determination on Streptococcus pneumoniae by the microdilution broth method; assay type: cell-based; details: MH broth II with horse blood and 2,2-bipyridine, 16-18 hours; for MIC against Streptococcus pneumoniae 180918016-S27: clinical strain 180918016-S27; for MIC against Streptococcus pneumoniae 180918017-S28: clinical strain 180918017-S28
# Procedure: The minimum inhibitory concentration (MIC) determination was performed in accordance with the standards of the American Association for Clinical and Laboratory Standards (CLSIM07). The MIC determination on Streptococcus pneumoniae was carried out by the microdilution broth method as follows. First, the compound to be tested was dissolved in water to prepare a high-concentration original solution, and then the compound original solution was sequentially diluted by 2 folds, a total of 10 times, to prepare 11 samples of 10× working solution. Then the gradient dilutions of the compound were transferred to a 96-well round bottom plate, the first to eleventh wells contained 10 μL of the 11 samples of 10× working solution prepared above, respectively, and 10 μL of water was added to the twelfth well as a solvent control.
# [2] = Cytotoxicity test, MTT colorimetric method, L02; assay type: cell-based; details: human
# Procedure: (§1) The cytotoxicity test was carried out with the MTT colorimetric method. 5×10^3 cells in a logarithmic growth phase were inoculated in each well of a 96-well plate, and incubated overnight at 37° C. in an incubator (5% CO2). Then, different concentrations of compounds were added and the incubation further continued for 72 hours. Finally, 10 μL of MTT solution was added to each well and he incubation further continued for 4 hours. Then, the culture medium in each well was carefully aspirated. 100 μL of dimethyl sulfoxide was added to each well, and shaken at low speed for 10 minutes on a shaker to fully dissolve crystals. The absorbance of each well was measured at OD490 nm of the enzyme-linked immunometric meter. Three parallel measurements were designed for each group, in order to calculate the standard deviation. Cell survival rate=(compound-treated OD value−blank control OD value)/(normal control OD value−blank control OD value)*100%
# (§2) The toxicity of each compound was tested by measuring the half inhibitory concentrations (IC50) with respect to human normal hepatocytes (L02), human umbilical vein endothelial cells (HUVEC) and human renal epithelial cells (293T), respectively.
# [3] = test system: human normal hepatocytes, human umbilical vein endothelial cells and human renal epithelial cells; test: Cytotoxicity test, overall statement across the three normal human cell types; assay type: cell-based; details: L02, HUVEC and 293T; compared with methotrexate
# Procedure: as §1, §2
# [4] = Cytotoxicity test, MTT colorimetric method, HUVEC; assay type: cell-based; details: human
# Procedure: as §1, §2
# [5] = Cytotoxicity test, MTT colorimetric method, 293T; assay type: cell-based; details: human
# Procedure: as §1, §2
# [6] = test system: Streptococcus pneumoniae; details: background statement; cited from earlier work
# [7] = test system: Enterococcus; details: cited from earlier work
Compound,MIC against Streptococcus pneumoniae 180918016-S27 [1],MIC against Streptococcus pneumoniae 180918017-S28 [1],IC50 at 72 h [2],Toxicity to normal human cells (in words) [3],IC50 at 72 h [4],IC50 at 72 h [5],MIC against Streptococcus pneumoniae [6],"IC50 at 72 h ([2]; L02 cells (human normal hepatocytes), L02 cells, MTT, 72 hours, read-out: Cytotoxicity IC50 L02)","IC50 at 72 h ([4]; HUVEC (human umbilical vein endothelial cells), HUVEC cells, MTT, 72 hours, read-out: Cytotoxicity IC50 HUVEC)",MIC against Enterococcus [7],"IC50 at 72 h ([5]; 293T cells (human renal epithelial cells), 293T cells, MTT, 72 hours, read-out: Cytotoxicity IC50 293T)"
CC(=O)N(O)CCCC[C@H](NC(=O)[C@H](CCCCN(O)C(C)=O)NC(=O)[C@@H](N)CCCCN(O)C(C)=O)C(=O)NCCOCCOCCNC(=O)CC[C@H](NC(=O)c1ccc(N(C)Cc2cnc3nc(N)nc(N)c3n2)cc1)C(=O)O [3-4v],<0.0078,<0.0078,,,,,,,,,
CC(=O)N(O)CCC[C@H](NC(=O)[C@H](CCCN(O)C(C)=O)NC(=O)[C@@H](N)CCCN(O)C(C)=O)C(=O)NCCCCCNC(=O)CC[C@@H](NC(=O)c1ccc(N(C)Cc2cnc3nc(N)nc(N)c3n2)cc1)C(=O)O [3-4b],0.0625,<0.0078,34.6 ± 14.5 µM,least toxicity,31 ± 3.18 µM,8.82 ± 0.08 µM,,,,,
CCC(=O)N(O)CCCC[C@H](NC(=O)[C@H](CCCCN(O)C(=O)CC)NC(=O)[C@@H](N)CCCCN(O)C(=O)CC)C(=O)NCCOCCOCCNC(=O)CC[C@H](NC(=O)c1ccc(N(C)Cc2cnc3nc(N)nc(N)c3n2)cc1)C(=O)O [3-4x],<0.0078,<0.0078,,,,,,,,,
CC(=O)N(O)CCC[C@H](NC(=O)[C@H](CCCN(O)C(C)=O)NC(=O)[C@@H](N)CCCN(O)C(C)=O)C(=O)NCCOCCOCCNC(=O)CC[C@@H](NC(=O)c1ccc(N(C)Cc2cnc3nc(N)nc(N)c3n2)cc1)C(=O)O [3-4c],<0.0078,<0.0078,5.46 ± 2.18 µM,,4.52 ± 0.21 µM,2.66 ± 0.01 µM,,,,,
"CN[C@H](CC(C)C)C(=O)N[C@H]1C(=O)N[C@@H](CC(N)=O)C(=O)N[C@H]2C(=O)N[C@H]3C(=O)N[C@H](C(=O)N[C@H](C(=O)O)c4cc(O)cc(O)c4-c4cc3ccc4O)[C@H](O)c3ccc(c(Cl)c3)Oc3cc2cc(c3O[C@@H]2O[C@H](CO)[C@@H](O)[C@H](O)[C@H]2O[C@H]2C[C@](C)(N)[C@H](O)[C@H](C)O2)Oc2ccc(cc2Cl)[C@H]1O [Vancomycin, reference compound]",0.25,0.125,,,,,,,,,
CC(=O)N(O)CCC[C@H](NC(=O)[C@H](CCCN(O)C(C)=O)NC(=O)[C@@H](N)CCCN(O)C(C)=O)C(=O)NCCNC(=O)[C@H](CCCCN)NC(=O)CC[C@@H](NC(=O)c1ccc(N(C)Cc2cnc3nc(N)nc(N)c3n2)cc1)C(=O)O [3-4h],,,34.5 ± 4.01 µM,least toxicity,16.6 ± 2 µM,10.6 ± 1.34 µM,,,,,
"CN(Cc1cnc2nc(N)nc(N)c2n1)c1ccc(C(=O)N[C@@H](CCC(=O)O)C(=O)O)cc1 [Methotrexate, reference compound]",0.125,0.03125,,,,,0.5 µM,0.01 µM,< 0.0781 µM,4 µM,0.01 µM
CC(=O)N(O)CCC[C@H](NC(=O)[C@H](CCCN(O)C(C)=O)NC(=O)[C@@H](N)CCCN(O)C(C)=O)C(=O)NCCNC(=O)[C@H](CO)NC(=O)[C@H](CO)NC(=O)CC[C@@H](NC(=O)c1ccc(N(C)Cc2cnc3nc(N)nc(N)c3n2)cc1)C(=O)O [3-4g],<0.0078,<0.0078,27 ± 2.88 µM,least toxicity,18.4 ± 1.82 µM,5.38 ± 0.65 µM,,,,,
"CC(=O)N(O)CCC[C@H](NC(=O)[C@H](CCCN(O)C(C)=O)NC(=O)[C@@H](N)CCCN(O)C(C)=O)C(=O)N[C@@H](CO)C(=O)NCCNC(=O)CC[C@@H](NC(=O)c1ccc(N(C)Cc2cnc3nc(N)nc(N)c3n2)cc1)C(=O)O [3-4f] (H-[Orn(N5-OH,N5-Ac)][Orn(N5-OH,N5-Ac)][Orn(N5-OH,N5-Ac)]S-{Ethylenediamine-d(γGlu)-DAMPA})",<0.0078,<0.0078,14.7 ± 1.7 µM,,19.2 ± 0.54 µM,3.93 ± 0.03 µM,,,,,
